Source: article PMC4995692, “An assay to measure poly(ADP ribose) glycohydrolase (PARG) activity in cells” (F1000Research, 2016)
“Also recorded” adds a separate entry of the source. Blank lines part the entries; values can stand above or below the compound they belong to.

Tests used:
H1048 cells = assay: SRB assay, MMS sensitivity of H1048; format: cell-based; conditions: Homo sapiens, NCI-H1048, 72 h
Method: (§1) Cells in 96-well plates were fixed with the addition of 100 µL ice cold 10% trichloroacetic acid to the media. After 1 h at 4°C, the cells were washed twice with PBS and left to dry. Once dry, 100 µL 0.2% sulforhodamine B (SRB) was add to each well and incubated for 15 min at room temperature. The cells were washed three times with 200 µL 1% acetic acid and then dried. To solubilise the remaining SRB, 200 µL 10 mM Tris pH10.5 was added to each well and the plate incubated with agitation for 10 min. Absorbance at 520 nm was measured on a plate reader (Biotek, Swindon, UK).

[1] = tested on: nuclear PAR chains in Hela cells; format: cell-based, human; conditions: 250 µg/mL MMS
Method: Exponentially growing HeLa cells were trypsinized and resuspended in complete media before being filtered through a […] cell strainer (#352340, BD Falcon, Oxford, UK). Cells were then counted using a Muse cell counter (Merck Millipore, Hertfordshire, UK) and seeded in 30 µL of media at 4×10 ^4 cells/mL in Greiner 384-well plates (#781091, Greiner Bio-One, Stonehouse, UK) and placed in a cell culture incubator. After 16–24 h the plates were centrifuged briefly at 164× g and the cells dosed with compound(s) or vehicle (DMSO) control using an Echo 550 (Labcyte, Dublin, Ireland). […] After 1 h the plate was re-spun and cells co-dosed with different concentrations of MMS (50–250 µg/mL final concentration) or DMSO using the Echo 550 and incubated for a given time (30 min–2 h) at 37°C in a cell culture incubator. […] Following three washes with PBS, the plates were sealed and images captured using a 10× objective on a CellInsight (ThermoFisher) and analysed using Cellomics Scan compartmental analysis software (ThermoFisher). A threshold determined by assessing the signal in DMSO treated cells was applied to the pixel intensity and a Box Detection application was used to detect objects smaller than five pixels in radius within the nucleus. […]

SW620 cells = assay: SW620 proliferation after MMS (Hoechst stain); format: cell-based, human; conditions: MMS 72 h
[2] = tested on: PAR chains in PARG KD cells; assay: PAR chain detection after MMS, preliminary western blot; format: cell-based, human; conditions: 250 µg/mL MMS
[3] = tested on: PARG KD Hela cells (PARG Silencix); assay: Growth inhibition by MMS in PARG KD Hela cells; format: cell-based; conditions: Homo sapiens, 120 h, 5 days
control Hela cells = assay: Growth inhibition by MMS in control Hela cells; format: cell-based; conditions: Homo sapiens, 120 h, 5 days
[4] = tested on: Murine embryonic fibroblasts (MEFs); assay: SRB assay, MMS sensitivity of MEFs; format: cell-based; conditions: Mus musculus, Fibroblast, 72 h
Method: as §1

PARG = PARG (Homo sapiens, UniProt Q86W56); assay: PAR chain assay in SW620 cells with temozolomide; format: cell-based
Sequence of PARG (Q86W56 whole entry): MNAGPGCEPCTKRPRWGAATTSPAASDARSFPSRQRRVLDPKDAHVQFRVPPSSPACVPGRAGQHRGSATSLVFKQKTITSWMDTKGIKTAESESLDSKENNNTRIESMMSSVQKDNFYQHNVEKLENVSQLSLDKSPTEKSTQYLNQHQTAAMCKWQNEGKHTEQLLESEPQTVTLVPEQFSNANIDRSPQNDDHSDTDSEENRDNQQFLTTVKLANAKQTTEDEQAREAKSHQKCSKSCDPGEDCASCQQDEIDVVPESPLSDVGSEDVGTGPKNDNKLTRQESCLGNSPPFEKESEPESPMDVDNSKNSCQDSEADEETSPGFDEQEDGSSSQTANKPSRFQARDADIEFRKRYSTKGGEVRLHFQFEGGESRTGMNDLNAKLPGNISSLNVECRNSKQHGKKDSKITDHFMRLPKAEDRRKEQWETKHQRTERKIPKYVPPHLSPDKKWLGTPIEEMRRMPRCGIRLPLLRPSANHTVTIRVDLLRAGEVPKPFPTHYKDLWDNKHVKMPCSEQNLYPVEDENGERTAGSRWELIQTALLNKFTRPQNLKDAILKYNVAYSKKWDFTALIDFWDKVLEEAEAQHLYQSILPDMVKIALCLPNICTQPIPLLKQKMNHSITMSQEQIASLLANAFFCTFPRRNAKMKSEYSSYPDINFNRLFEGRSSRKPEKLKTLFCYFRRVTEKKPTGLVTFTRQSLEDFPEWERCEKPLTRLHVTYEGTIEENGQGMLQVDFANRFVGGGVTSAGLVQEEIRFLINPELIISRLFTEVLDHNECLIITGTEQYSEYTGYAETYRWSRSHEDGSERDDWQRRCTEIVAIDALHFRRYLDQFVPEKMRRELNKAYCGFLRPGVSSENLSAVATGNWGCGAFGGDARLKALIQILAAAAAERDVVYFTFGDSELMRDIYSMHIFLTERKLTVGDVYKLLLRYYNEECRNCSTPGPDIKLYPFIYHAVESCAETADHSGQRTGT

Compound: COS(C)(=O)=O [MMS, Methylmethanesulfonate]
IC50 (H1048 cells): 9 µM
time of maximum nuclear PAR signal [1]: 25 min
proliferation (SW620 cells): dose-dependent decrease
time of peak of PAR chains after MMS addition [2]: approximately 20 min
IC50 [3]: 6.2 µg/mL
IC50 (control Hela cells): 16.5 µg/mL
IC50 [4]: 14.5 µM

PAR signal (PARG; one hour after TMZ alone): no PAR signal detectable
Compound: Cn1nnc2c(C(N)=O)ncn2c1=O [TMZ, Temozolomide]

PAR signal (PARG; pre-treated at 300 nM, 1 h temozolomide 1.5-200 µg/mL): no effect
Compound: O=C(c1cc(Cc2n[nH]c(=O)c3ccccc23)ccc1F)N1CCN(C(=O)C2CC2)CC1 [olaparib]
PAR signal (PARG; increasing concentrations of compound, 150 µg/mL temozolomide for 1 h): did not lead to any increase; also recorded: no effect
